Results on 26 molecules are retold here after patent publication US8686024B2, “Indoline derivatives” (priority 2009, dated 2014).

The target of experiment [1] is T1, acetylcholine esterase (AChE) (Mus musculus, UniProt P21836).
T1 construct: brain homogenate and serum of mouse were used as choline esterase enzyme sources; from tissue; host or cells: mouse brain homogenate
T1 sequence (P21836 32-614): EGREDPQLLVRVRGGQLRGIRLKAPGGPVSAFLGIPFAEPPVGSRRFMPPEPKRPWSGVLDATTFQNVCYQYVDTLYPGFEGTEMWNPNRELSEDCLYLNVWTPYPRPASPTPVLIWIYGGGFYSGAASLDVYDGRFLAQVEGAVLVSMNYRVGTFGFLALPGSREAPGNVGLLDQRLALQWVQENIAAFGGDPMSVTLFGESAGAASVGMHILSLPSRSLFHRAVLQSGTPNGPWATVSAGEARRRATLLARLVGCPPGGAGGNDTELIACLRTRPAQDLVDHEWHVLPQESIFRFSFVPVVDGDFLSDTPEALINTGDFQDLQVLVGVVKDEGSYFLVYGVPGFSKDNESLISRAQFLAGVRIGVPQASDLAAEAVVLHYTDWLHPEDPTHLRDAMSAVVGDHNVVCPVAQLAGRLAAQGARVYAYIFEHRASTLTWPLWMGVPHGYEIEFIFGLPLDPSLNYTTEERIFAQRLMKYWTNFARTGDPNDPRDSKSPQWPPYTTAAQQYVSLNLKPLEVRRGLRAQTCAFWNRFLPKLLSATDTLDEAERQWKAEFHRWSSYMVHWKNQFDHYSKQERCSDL
Kind of experiment: In vitro assay for choline esterase inhibition (Ellman method), acetylthiocholine substrate, mouse brain homogenate. Type of experiment: biochemical. The protocol: (§1) For measurement of esterase activity, brain homogenate and serum of mouse were used as choline esterase enzyme sources, and the method of Ellman et. al (Biochemical pharmacology 7: 88-95 1961) were referred. Compound of each example were diluted in dimethylsulfoxide.
(§2) In detail, acetylthiocholine or butyrylthiocholine as substrates, test compounds, and DNTB [[…]] were added to the mouse brain homogenate or serum, respectively.
(§3) After incubation, thiocholine was produced by enzyme reaction in the mixture, and then, the yellow product was formed by the reaction of thiocholine and DTNB. The activity of acetylcholine esterase (AChE) or butyrylcholine esterase (BuChE) was evaluated by determination of absorbance at 415 nm. […] And the selectivity for BuChE inhibition of each compound was calculated by the ratio: IC50 (AchE)/IC50 (BuChE).
In general terms: In Ellman's method for cholinesterases, released thiocholine reacts with DTNB.

The target in experiment [2] is T2, butyrylcholine esterase (BuChE) (Mus musculus, UniProt Q03311).
T2 construct: brain homogenate and serum of mouse were used as choline esterase enzyme sources; from tissue; host or cells: mouse serum
T2 sequence (Q03311 30-603): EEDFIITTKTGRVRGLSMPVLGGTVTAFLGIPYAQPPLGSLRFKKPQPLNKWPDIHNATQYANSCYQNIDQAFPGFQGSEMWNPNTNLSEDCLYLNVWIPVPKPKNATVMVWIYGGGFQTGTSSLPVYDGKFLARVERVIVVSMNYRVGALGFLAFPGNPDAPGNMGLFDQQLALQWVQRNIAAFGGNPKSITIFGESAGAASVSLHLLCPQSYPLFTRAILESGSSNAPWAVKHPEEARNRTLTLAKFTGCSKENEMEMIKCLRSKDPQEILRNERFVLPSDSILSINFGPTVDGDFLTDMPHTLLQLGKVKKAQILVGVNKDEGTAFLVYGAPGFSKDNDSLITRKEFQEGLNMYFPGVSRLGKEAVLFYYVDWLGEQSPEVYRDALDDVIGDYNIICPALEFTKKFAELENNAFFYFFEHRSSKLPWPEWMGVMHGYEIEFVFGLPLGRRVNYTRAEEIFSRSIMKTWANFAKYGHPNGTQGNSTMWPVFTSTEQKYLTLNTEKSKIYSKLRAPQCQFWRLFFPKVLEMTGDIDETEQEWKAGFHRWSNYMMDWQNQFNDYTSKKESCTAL
The experiment is described as follows: In vitro assay for choline esterase inhibition (Ellman method), butyrylthiocholine substrate, mouse serum. Type of experiment: biochemical. The conditions noted are these: for Ratio AChE/BuChE: selectivity for BuChE inhibition: IC50 (AchE)/IC50 (BuChE); for selectivity to butyrylcholinesterase (BuChE versus AChE inhibitory activity), in words: summary of Tables 1-3. The method, then:
as §1, §2, §3

Setting [3] is: mouse brain homogenate, acetylthiocholine, absorbance at 415 nm, read-out: AChE inhibitory activity IC50.
[4] abbreviates: mouse serum, butyrylthiocholine, absorbance at 415 nm, read-out: BuChE inhibitory activity IC50.

Where two headings read alike, the source gives them in different places.

Usually IC50 stands for the midpoint of a concentration-inhibition curve. For the molecule `O=C(NCCc1ccc(Cl)cc1)Oc1ccc2c(c1)CCN2Cc1ccccc1` [Example 104, 1-benzylindolin-5-yl 4-chlorophenethylcarbamate], in experiment [1] (setting [3]), the IC50 came to 5500 nM. Further, the IC50 in experiment [2] (setting [4]) is 11 nM. Also, in experiment [2], the “Ratio AChE/BuChE” value amounted to 500 and the “selectivity to butyrylcholinesterase (BuChE versus AChE inhibitory activity), in words” value is “much higher”.
As for `Cc1ccc(NC(=O)Oc2ccc3c(c2)CCN3Cc2ccccc2)cc1C` [Example 113, 1-benzylindolin-5-yl 3,4-dimethylphenylcarbamate], in experiment [1], the IC50 is > 100000 nM. In experiment [2], the IC50 was determined as 160 nM and the “Ratio AChE/BuChE” value is recorded as >630.
For the molecule `CCCNC(=O)Oc1ccc2c(c1)CCN2Cc1ccccc1` [Example 114, 1-benzylindolin-5-yl n-propylcarbamate], the concentration for half-maximal inhibition (IC50) in experiment [1] (setting [3]) was 5200 nM; in experiment [2] (setting [4]), 180 nM. Moreover, in experiment [2], the “Ratio AChE/BuChE” value turned out to be 29.
Take `Cc1ccccc1CCNC(=O)Oc1ccc2c(c1)CCN2Cc1ccccc1` [Example 115, 1-benzylindolin-5-yl 2-methylphenethylcarbamate]: the half-inhibitory concentration (IC50) in experiment [1] (setting [3]) was found to be 12000 nM; in experiment [2] (setting [4]), 10 nM. For the same molecule, the “Ratio AChE/BuChE” value in experiment [2] came out at 1200. The “selectivity to butyrylcholinesterase (BuChE versus AChE inhibitory activity), in words” value in experiment [2] is “much higher”.
In the case of `Cc1ccc(CCNC(=O)Oc2ccc3c(c2)CCN3Cc2ccccc2)c(C)c1` [Example 116, 1-benzylindolin-5-yl 2,4-dimethylphenethylcarbamate], in experiment [1], the IC50 was > 100000 nM. For the same molecule, in experiment [2], the IC50 was 45 nM; the “Ratio AChE/BuChE” value was >2200; the “selectivity to butyrylcholinesterase (BuChE versus AChE inhibitory activity), in words” value is listed as “much higher”.
As to `COc1ccccc1CCNC(=O)Oc1ccc2c(c1)CCN2Cc1ccccc1` [Example 117, 1-benzylindolin-5-yl 2-methoxyphenethylcarbamate], the IC50 in experiment [1] (setting [3]) is 7900 nM. Further, the IC50 in experiment [2] (setting [4]) was determined as 24 nM. Further, in experiment [2], the “Ratio AChE/BuChE” value worked out at 330 and the “selectivity to butyrylcholinesterase (BuChE versus AChE inhibitory activity), in words” value is “much higher”.
Take `O=C(NCCc1ccc(Cl)cc1Cl)Oc1ccc2c(c1)CCN2Cc1ccccc1` [Example 118, 1-benzylindolin-5-yl 2,4-dichlorophenethylcarbamate]: the IC50 in experiment [1] was > 100000 nM. In experiment [2], half-maximal inhibition (IC50) required 10 nM; the “Ratio AChE/BuChE” value is >10000; the “selectivity to butyrylcholinesterase (BuChE versus AChE inhibitory activity), in words” value is on record as “much higher”.
With `O=C(NCCc1ccncc1)Oc1ccc2c(c1)CCN2Cc1ccccc1` [Example 119, 1-benzylindolin-5-yl 2-(4-pyridyl)ethylcarbamate], the IC50 in experiment [1] (setting [3]) turned out to be 14000 nM. Further, the IC50 in experiment [2] (setting [4]) is 59 nM. Further, in experiment [2], the “Ratio AChE/BuChE” value is given as 240 and the “selectivity to butyrylcholinesterase (BuChE versus AChE inhibitory activity), in words” value is “much higher”.
Take `O=C(NCCc1cccnc1)Oc1ccc2c(c1)CCN2Cc1ccccc1` [Example 120, 1-benzylindolin-5-yl 2-(3-pyridyl)ethylcarbamate]: the IC50 in experiment [1] (setting [3]) amounted to 8500 nM. Besides, the IC50 in experiment [2] (setting [4]) is 24 nM. For the same molecule, in experiment [2], the “Ratio AChE/BuChE” value amounted to 350 and the “selectivity to butyrylcholinesterase (BuChE versus AChE inhibitory activity), in words” value is given as “much higher”.
Take `COC1C=CC(CNC(=O)Oc2ccc3c(c2)CCN3Cc2ccccc2)(OC)O1` (centres unmarked) [Example 122, 1-benzylindolin-5-yl (2,5-dihydro-2,5-dimethoxyfuran-2-yl)methylcarbamate]: in experiment [1], the IC50 was > 100000 nM. In experiment [2], the IC50 stood at 480 nM and the “Ratio AChE/BuChE” value is given as >210.
For the molecule `O=C(NCc1ccccc1)Oc1ccc2c(c1)CCN2` [Example 127, indolin-5-yl benzylcarbamate], the half-maximal inhibitory concentration (IC50) in experiment [1] (setting [3]) came out at 750 nM; in experiment [2] (setting [4]), 610 nM. Moreover, the “Ratio AChE/BuChE” value in experiment [2] amounted to 1.2.
In the case of `CNC(=O)Oc1ccc2c(c1)CCN2Cc1ccccc1` [Example 131, 1-benzylindolin-5-yl methylcarbamate], the IC50 was found to be 1300 nM in experiment [1] and 210 nM in experiment [2]. The “Ratio AChE/BuChE” value in experiment [2] was 6.2.
Turning to `CN(C)c1ccc(NC(=O)Oc2ccc3c(c2)CCN3Cc2ccccc2)cc1` [Example 133, 1-benzylindolin-5-yl 4-dimethylaminophenylcarbamate], the half-maximal inhibitory concentration (IC50) in experiment [1] was > 100000 nM. For the same molecule, in experiment [2], the IC50 is 39 nM; the “Ratio AChE/BuChE” value is >2600; the “selectivity to butyrylcholinesterase (BuChE versus AChE inhibitory activity), in words” value was “much higher”.
`CN(C)CCCNC(=O)Oc1ccc2c(c1)CCN2Cc1ccccc1` [Example 137, 1-benzylindolin-5-yl 3-(dimethylamino)propylcarbamate]: in experiment [1], the concentration for half-maximal inhibition (IC50) is > 100000 nM. Also, in experiment [2], the midpoint of inhibition, the IC50, lay at 180 nM and the “Ratio AChE/BuChE” value is listed as >560.
The matching figures for `O=C(NC1CCN(Cc2ccccc2)CC1)Oc1ccc2c(c1)CCN2Cc1ccccc1` [Example 138, 1-benzylindolin-5-yl 1-benzylpiperidin-4-ylcarbamate]: > 100000 nM, 900 nM and >110.
In experiment [1], `O=C(NCCC1CCN(Cc2ccccc2)CC1)Oc1ccc2c(c1)CCN2Cc1ccccc1` [Example 139, 1-benzylindolin-5-yl 2-(1-benzylpiperidin-4-yl)ethylcarbamate] showed an IC50 of 2700 nM. For the same molecule, in experiment [2], half-maximal inhibition (IC50) was put at 43 nM and the “Ratio AChE/BuChE” value worked out at 63.
The corresponding values for `COc1ccc(NC(=O)Oc2ccc3c(c2)CCN3Cc2ccccc2)cc1OC` [Example 140, 1-benzylindolin-5-yl 3,4-dimethoxyphenylcarbamate] are > 100000 nM, 110 nM and >910.
As for `CC(C)c1ccc(NC(=O)Oc2ccc3c(c2)C(C)(C)CN3Cc2ccccc2)cc1` [Example 145, 1-benzyl-3,3-dimethylindolin-5-yl-4-isopropylphenylcarbamate], the IC50 in experiment [1] (setting [3]) was > 100000 nM; in experiment [2] (setting [4]), 280 nM. Moreover, in experiment [2], the “Ratio AChE/BuChE” value is >360.
Regarding `CC(C)c1ccc(NC(=O)Oc2ccc3c(c2)C(C)CN3Cc2ccccc2)cc1` (centres unmarked) [Example 146, 1-benzyl-3-methylindolin-5-yl-4-isopropylphenylcarbamate], the IC50 in experiment [1] (setting [3]) is > 100000 nM; in experiment [2] (setting [4]) it was 180 nM. In addition, in experiment [2], the “Ratio AChE/BuChE” value is reported as >560.
The matching figures for `CCCCCCNC(=O)Oc1ccc2c(c1)CCN2Cc1ccccn1` [Example 147, 1-(2-pyridylmethyl)indolin-5-yl n-hexylcarbamate]: 250 nM, 11 nM and 23.
For `O=C(NCC1CCCCC1)Oc1ccc2c(c1)CCN2Cc1ccccn1` [Example 148, 1-(2-pyridylmethyl)indolin-5-yl cyclohexylmethylcarbamate], the concentration for half-maximal inhibition (IC50) is 1200 nM in experiment [1] (setting [3]) and 2 nM in experiment [2] (setting [4]). For the same molecule, the “Ratio AChE/BuChE” value in experiment [2] came to 600. The “selectivity to butyrylcholinesterase (BuChE versus AChE inhibitory activity), in words” value in experiment [2] is given as “much higher”.
Regarding `O=C(NC1CCCCC1)Oc1ccc2c(c1)CCN2Cc1ccccn1` [Example 149, 1-(2-pyridylmethyl)indolin-5-yl cyclohexylcarbamate], the IC50 in experiment [1] (setting [3]) is 2200 nM; in experiment [2] (setting [4]), 58 nM. In experiment [2], the “Ratio AChE/BuChE” value is reported as 38.
The corresponding values for `O=C(NCc1ccccc1)Oc1ccc2c(c1)CCN2Cc1ccccn1` [Example 150, 1-(2-pyridylmethyl)indolin-5-yl benzylcarbamate] are 110 nM, 10 nM and 11.
The matching figures for `CN(C)c1ccc(NC(=O)Oc2ccc3c(c2)CCN3Cc2ccccn2)cc1` [Example 152, 1-(2-pyridylmethyl)indolin-5-yl 4-dimethylaminophenylcarbamate]: 1100 nM, 57 nM and 19.
`CC(C)(C)CNC(=O)Oc1ccc2c(c1)CCN2Cc1ccccc1` [Example 153, 1-benzylindolin-5-yl 2,2-dimethylpropylcarbamate]: the IC50 in experiment [1] was > 100000 nM. Further, in experiment [2], the IC50 amounted to 91 nM; the “Ratio AChE/BuChE” value was >1100; the “selectivity to butyrylcholinesterase (BuChE versus AChE inhibitory activity), in words” value is recorded as “much higher”.
On to `O=C(NCC1CCOC1)Oc1ccc2c(c1)CCN2Cc1ccccc1` (centres unmarked) [Example 155, 1-benzylindolin-5-yl 3-tetrahydrofurylmethylcarbamate], for which the IC50 in experiment [1] (setting [3]) was found to be 57000 nM. Besides, the IC50 in experiment [2] (setting [4]) came to 15 nM. Besides, in experiment [2], the “Ratio AChE/BuChE” value is listed as 3800 and the “selectivity to butyrylcholinesterase (BuChE versus AChE inhibitory activity), in words” value is reported as “much higher”.
